# Results as given in ChEMBL document CHEMBL1201862, “PubChem BioAssay data set” (2004).
# Calls of active or inactive are those of the source. Rule as the data show it, for most assays here: actives have a measured EC50 and inactives only a lower limit.
# Key:
# [1] = Luminescence Cell-Based Dose Response HTS to Identify Activators of Luciferase Translation or Activity in H4 […] Cells. [Related pubchem assays: 1829 (Project Summary), 1814 (Primary HTS)]; format: functional
# H4 = assay: Luminescence Cell-Based Dose Response HTS to Identify Activators of 5'UTR Stem-Loop Driven Prion Protein mRNA Translation in H4 Neuroglioblastoma Cells. [Related pubchem assays: 1829 (Project Summary), 1814 (Primary HTS)]; format: functional; conditions: Homo sapiens
# [2] = Luminescence Cell-Based Dose Confirmation HTS to Identify Activators of 5'UTR Stem-Loop Driven Alpha-Synuclein mRNA Translation in H4 Neuroglioblastoma Cells. [Related pubchem assays: 1829 (Project Summary), 1814 (Primary HTS)]; format: functional
# [3] = target: T1, RNA-binding protein pos-1 (Caenorhabditis elegans, UniProt G5EF15); assay: inhibitors of POS-1/mex-3 RNA binding, dose response, biochemical, fluorescence polarization (AID 1964);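 also: purified POS-1 fused to maltose binding protein made in E. coli; potency of compounds blocking POS-1 binding to fluorescent RNA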
# T1 sequence (G5EF15 whole entry): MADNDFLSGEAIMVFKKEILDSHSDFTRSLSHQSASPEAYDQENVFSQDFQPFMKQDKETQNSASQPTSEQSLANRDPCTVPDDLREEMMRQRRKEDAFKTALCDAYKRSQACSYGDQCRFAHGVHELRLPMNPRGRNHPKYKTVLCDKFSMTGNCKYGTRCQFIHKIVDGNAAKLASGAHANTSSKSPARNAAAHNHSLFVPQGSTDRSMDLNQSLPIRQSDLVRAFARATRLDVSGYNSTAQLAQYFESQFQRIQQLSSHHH
# [4] = target: T2, Zinc finger protein mex-5 (Caenorhabditis elegans, UniProt Q9XUB2); assay: MEX-5/TCR-2 RNA interaction inhibitors, dose response, biochemical, C. elegans, fluorescence polarization (AID 1960)
# T2 sequence (Q9XUB2 whole entry): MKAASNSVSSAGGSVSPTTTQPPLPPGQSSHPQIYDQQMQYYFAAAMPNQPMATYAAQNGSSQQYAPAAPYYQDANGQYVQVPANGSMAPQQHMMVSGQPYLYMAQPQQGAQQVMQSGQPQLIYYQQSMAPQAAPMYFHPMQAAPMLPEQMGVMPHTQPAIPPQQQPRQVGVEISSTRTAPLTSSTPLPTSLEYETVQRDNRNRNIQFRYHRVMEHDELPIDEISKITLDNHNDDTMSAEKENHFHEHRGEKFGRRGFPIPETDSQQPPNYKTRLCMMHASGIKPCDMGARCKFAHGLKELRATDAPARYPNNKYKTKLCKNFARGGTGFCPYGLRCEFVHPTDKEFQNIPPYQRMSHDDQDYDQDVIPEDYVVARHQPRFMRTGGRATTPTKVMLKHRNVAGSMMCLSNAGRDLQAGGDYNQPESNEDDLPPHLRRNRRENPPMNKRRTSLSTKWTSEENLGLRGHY
# Cytochrome P450 2D6 = Cytochrome P450 2D6 (Homo sapiens, UniProt P10635);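 also: CYP2D6 member of a cytochrome P450 panel assay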
# Chain of Cytochrome P450 2D6 (P10635 whole entry): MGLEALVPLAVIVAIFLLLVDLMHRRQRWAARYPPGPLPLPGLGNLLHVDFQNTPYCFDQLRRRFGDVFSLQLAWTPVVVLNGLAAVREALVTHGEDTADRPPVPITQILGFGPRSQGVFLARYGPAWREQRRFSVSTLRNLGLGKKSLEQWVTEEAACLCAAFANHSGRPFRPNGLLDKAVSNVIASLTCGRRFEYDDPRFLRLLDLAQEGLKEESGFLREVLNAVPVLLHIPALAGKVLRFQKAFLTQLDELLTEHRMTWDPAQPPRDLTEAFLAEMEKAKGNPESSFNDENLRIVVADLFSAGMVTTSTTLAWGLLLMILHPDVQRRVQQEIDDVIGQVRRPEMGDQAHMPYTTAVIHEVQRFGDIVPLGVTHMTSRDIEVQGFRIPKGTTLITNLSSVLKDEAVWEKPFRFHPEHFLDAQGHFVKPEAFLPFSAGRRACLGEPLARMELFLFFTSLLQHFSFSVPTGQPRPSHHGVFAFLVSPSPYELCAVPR
# [5] = target: T3, Heat shock factor protein 1 (Mus musculus, UniProt P38532); assay: HSF1 potentiators in luciferase reporter cells, confirmation, cell-based, NIH3T3, luminescence, dose retest (AID 435004); format: functional;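 also: stress induced by proteasome inhibitor MG132 added 30 min after compound; luciferase reporter driven by HSF1 response element in NIH3T3 cells; actives raise luminescence as potentiators of the MG132 stress response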
# T3 sequence (P38532 whole entry): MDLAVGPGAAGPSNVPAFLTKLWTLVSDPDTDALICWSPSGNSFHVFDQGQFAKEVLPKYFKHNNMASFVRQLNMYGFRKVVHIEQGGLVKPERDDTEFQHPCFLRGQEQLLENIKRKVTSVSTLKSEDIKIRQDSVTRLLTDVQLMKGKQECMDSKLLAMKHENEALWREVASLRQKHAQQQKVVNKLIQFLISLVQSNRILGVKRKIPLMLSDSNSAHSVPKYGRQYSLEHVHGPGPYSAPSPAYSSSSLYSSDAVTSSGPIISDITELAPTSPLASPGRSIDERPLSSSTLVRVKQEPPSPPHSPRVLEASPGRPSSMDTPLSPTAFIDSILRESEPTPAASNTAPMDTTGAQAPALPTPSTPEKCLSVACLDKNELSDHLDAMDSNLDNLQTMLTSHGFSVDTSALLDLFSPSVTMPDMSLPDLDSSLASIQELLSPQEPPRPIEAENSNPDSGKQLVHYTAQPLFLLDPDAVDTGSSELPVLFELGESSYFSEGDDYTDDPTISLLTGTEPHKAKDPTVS
# Cytochrome P450 3A4 = Cytochrome P450 3A4 (Homo sapiens, UniProt P08684);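 also: CYP3A4 tested as one member of a cytochrome P450 panel screen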
# Chain of Cytochrome P450 3A4 (P08684 whole entry): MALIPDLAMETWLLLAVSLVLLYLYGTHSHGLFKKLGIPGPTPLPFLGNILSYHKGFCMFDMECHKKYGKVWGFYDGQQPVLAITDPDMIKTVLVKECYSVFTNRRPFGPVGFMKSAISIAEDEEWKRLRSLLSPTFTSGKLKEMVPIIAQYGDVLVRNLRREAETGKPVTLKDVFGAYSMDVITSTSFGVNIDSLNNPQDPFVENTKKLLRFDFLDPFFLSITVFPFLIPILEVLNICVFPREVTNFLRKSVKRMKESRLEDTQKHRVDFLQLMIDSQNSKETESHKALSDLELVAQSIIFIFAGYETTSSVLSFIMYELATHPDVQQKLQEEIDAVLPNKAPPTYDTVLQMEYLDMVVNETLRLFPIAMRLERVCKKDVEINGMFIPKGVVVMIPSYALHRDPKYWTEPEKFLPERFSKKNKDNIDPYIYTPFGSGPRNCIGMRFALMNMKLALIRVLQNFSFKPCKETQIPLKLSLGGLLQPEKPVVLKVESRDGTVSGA
# [6] = target: T4, Corticotropin-releasing factor receptor 2/Corticotropin-releasing factor-binding protein (Homo sapiens, UniProt P24387+Q13324); assay: activators of CRF receptor 2 with binding protein – uHTS hits, confirmation (AID 602473); format: functional; conditions: read-out: EC50_Mean
# T4 sequence (Q13324 whole entry): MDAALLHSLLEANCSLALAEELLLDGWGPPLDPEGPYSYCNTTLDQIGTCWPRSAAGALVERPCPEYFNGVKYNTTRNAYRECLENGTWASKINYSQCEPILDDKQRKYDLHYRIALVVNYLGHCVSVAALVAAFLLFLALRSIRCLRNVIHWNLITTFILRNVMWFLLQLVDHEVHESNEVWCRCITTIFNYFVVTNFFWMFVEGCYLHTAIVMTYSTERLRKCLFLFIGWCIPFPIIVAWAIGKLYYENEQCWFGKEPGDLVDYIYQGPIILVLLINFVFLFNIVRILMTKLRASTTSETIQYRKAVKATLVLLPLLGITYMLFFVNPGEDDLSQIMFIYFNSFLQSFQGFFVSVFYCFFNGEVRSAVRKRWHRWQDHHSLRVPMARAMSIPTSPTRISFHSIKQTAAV
# T4 sequence (P24387 whole entry): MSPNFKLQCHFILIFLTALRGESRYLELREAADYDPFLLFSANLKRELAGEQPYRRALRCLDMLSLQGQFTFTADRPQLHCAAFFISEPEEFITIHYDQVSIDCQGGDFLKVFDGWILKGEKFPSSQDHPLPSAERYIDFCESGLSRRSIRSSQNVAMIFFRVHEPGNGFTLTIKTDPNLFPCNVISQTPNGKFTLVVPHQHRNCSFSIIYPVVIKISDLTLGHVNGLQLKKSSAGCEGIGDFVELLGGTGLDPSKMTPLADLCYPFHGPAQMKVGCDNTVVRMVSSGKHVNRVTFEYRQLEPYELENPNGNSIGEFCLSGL
# [7] = Luminescence Cell-Based Dose Retest to Confirm Inhibitors of Cancer Stem Cells. [Related pubchem assays (depositor defined):AID2717, AID2721]; format: functional; conditions: Homo sapiens
# Cytochrome P450 1A2 = target: T5, Cytochrome P450 1A2 (Homo sapiens, UniProt P05177);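 also: PubChem cytochrome P450 panel assay, CYP1A2 panel member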
# T5 sequence (P05177 whole entry): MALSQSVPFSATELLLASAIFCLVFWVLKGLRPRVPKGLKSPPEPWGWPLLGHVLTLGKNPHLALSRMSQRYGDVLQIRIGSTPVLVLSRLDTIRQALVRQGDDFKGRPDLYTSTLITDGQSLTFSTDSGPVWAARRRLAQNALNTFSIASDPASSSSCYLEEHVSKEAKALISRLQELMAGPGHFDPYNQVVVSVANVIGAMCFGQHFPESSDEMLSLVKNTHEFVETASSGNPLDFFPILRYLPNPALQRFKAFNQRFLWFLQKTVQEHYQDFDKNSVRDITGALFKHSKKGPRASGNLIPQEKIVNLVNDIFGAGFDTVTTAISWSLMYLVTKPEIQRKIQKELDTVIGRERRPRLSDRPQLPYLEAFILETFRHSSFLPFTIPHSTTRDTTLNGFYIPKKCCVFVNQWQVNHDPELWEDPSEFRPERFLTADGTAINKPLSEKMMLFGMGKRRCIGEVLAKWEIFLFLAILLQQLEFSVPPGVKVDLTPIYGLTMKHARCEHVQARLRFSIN
# P388/ADR = assay: cells; format: functional; conditions: Mus musculus
# SN12K1 = assay: cells; format: functional; conditions: Homo sapiens
smiles,measurement,setting,value
CC12CCC(C(=O)Nc3nc4ccccc4s3)(OC1=O)C2(C)C (stereo unspecified),EC50,[1],18.9 µM (active)
same,EC50,H4,12.7 µM (active)
same,EC50,[2],> 60 µM (not active)
C=CCNC(SCC(=O)c1ccc(Cl)cc1)=C1C(=O)N(C)C(=O)N(C)C1=O,EC50,[1],> 120 µM (not active)
same,EC50,H4,19.5 µM (active)
same,EC50,[2],24.9 µM (active)
CCN1C(=O)/C(=C\c2cccs2)C(C(=O)OC)=C1C,EC50,[3],> 300 µM (not active)
same,EC50,[4],> 300 µM (not active)
O=C(Nc1nc2c(F)cc(F)cc2s1)C1CCN(C(=O)c2ccc(F)cc2)CC1,EC50,[1],8.78 µM (active)
same,EC50,H4,26.8 µM (active)
same,EC50,[2],3.61 µM (active)
N#C[C@H](c1ccccc1)N1CCCN([C@@H](C#N)c2ccccc2)[C@H]1c1ccccc1O,AC50,Cytochrome P450 2D6,5.01 µM (inconclusive)
CCOC(=O)C1CCN(c2c(Nc3ccc4c(c3)OCCO4)c(=O)c2=O)CC1,EC50,[1],18 µM (active)
same,EC50,H4,9.87 µM (active)
same,EC50,[2],18.9 µM (active)
N#C/C(=C/c1cccn1-c1cccc(C(=O)O)c1)c1ccc(Cl)cc1,EC50,[3],> 300 µM (not active)
same,EC50,[4],> 300 µM (not active)
COCCn1c(N)c(N(Cc2ccccc2)C(=O)c2ccc(C#N)cc2)c(=O)[nH]c1=O,EC50,[5],> 260 µM (inactive)
Cc1cc(/C=C2\C(=O)NC(=O)N(c3ccc(Br)cc3)C2=O)c(C)n1-c1cc(C(=O)O)cc(C(=O)O)c1,EC50,[3],> 300 µM (not active)
same,EC50,[4],> 300 µM (not active)
O[C@H](COc1ccccc1)CN1CCCCC1,AC50,Cytochrome P450 2D6,5.01 µM (inconclusive)
Cc1ccc(-c2ccc(O)nn2)cc1,EC50,[5],> 260 µM (inactive)
O=C1NC(=O)N(c2cccc(Cl)c2)C(=O)/C1=C\Nc1ccccn1,EC50,[3],> 300 µM (not active)
same,EC50,[4],> 300 µM (not active)
COC(=O)CCCC1=CC2=CC(=O)C(C)(OC(=O)c3ccco3)C(=O)C2=CO1 (stereo unspecified),EC50,[3],274 µM (inconclusive)
same,EC50,[4],22.3 µM (active)
Cc1ccc(CNC(=O)/C(C#N)=C\c2ccc(N(C)C)cc2)cc1,EC50,[3],43.5 µM (active)
same,EC50,[4],> 300 µM (not active)
Cc1noc(C)c1C(=O)N1CCC2(CCCN(c3ccccc3)C2)CC1,AC50,Cytochrome P450 2D6,12.6 µM (inconclusive)
same,AC50,Cytochrome P450 3A4,15.8 µM (inconclusive)
CCCOC1CCCN(C(=O)CCc2nnc(Cc3cccc(C)c3)o2)C1 (stereo unspecified),EC50,[1],16.5 µM (active)
same,EC50,H4,16.5 µM (inconclusive)
same,EC50,[2],9.73 µM (active)
Cc1ccc(C(c2nnnn2C2CCCC2)N2CCc3ccccc32)cc1 (stereo unspecified),EC50,[5],> 260 µM (inactive)
O=C(Nc1cc(C(F)(F)F)ccc1Cl)c1cc2nc3c(c(C(F)(F)F)n2n1)CCCC3,EC50,[1],0.365 µM (active)
same,EC50,H4,0.195 µM (active)
same,EC50,[2],1.53 µM (active)
CCCC[C@@H]1C[C@H]1C(NC(=O)c1ccco1)c1ccccc1 (stereo partly specified),AC50,Cytochrome P450 2D6,39.8 µM (inconclusive)
same,AC50,Cytochrome P450 3A4,20 µM (inconclusive)
S=C(N=Nc1ccccc1)NNc1ccccc1,EC50,[1],14.1 µM (active)
same,EC50,H4,27.9 µM (inconclusive)
same,EC50,[2],14.4 µM (active)
S=C1SCN(C2CCCCCCCCCCC2)CN1C1CCCCCCCCCCC1,AC50,Cytochrome P450 2D6,3.16 µM (inconclusive)
CNC(=O)c1c(NC(=O)c2ccc(S(=O)(=O)N3CCCc4ccccc43)cc2)sc2c1CCN(C)C2,EC50,[3],> 300 µM (not active)
same,EC50,[4],> 300 µM (not active)
same,EC50,[6],6.81 µM (active)
same,AC50,[7],0.206 µM (active)
O=C(c1csnn1)N1CCC2(CC1)CCN(c1ncccn1)CC2,AC50,Cytochrome P450 2D6,39.8 µM (inconclusive)
CCC/C=C(\CCC)C(NS(C)(=O)=O)c1ccccc1 (stereo unspecified),AC50,Cytochrome P450 1A2,25.1 µM (inconclusive)
same,AC50,Cytochrome P450 2D6,39.8 µM (inconclusive)
same,AC50,Cytochrome P450 3A4,31.6 µM (inconclusive)
S=C(NCc1ccco1)N1CCN(c2ccccc2Cl)CC1,EC50,[5],> 260 µM (inactive)
C[C@H]1CN(C2CCC(C#N)(c3ccc(F)cc3)CC2)CC[C@@]1(C(=O)O)c1ccccc1 (stereo partly specified),AC50,Cytochrome P450 2D6,10 µM (inconclusive)
CCN1CCCCC(=N/O)/C(=N/O)CCCC1,AC50,Cytochrome P450 2D6,1.58 µM (inconclusive)
O=S1(=O)N=C(NCC(c2ccco2)N2CCCCC2)c2ccccc21 (stereo unspecified),EC50,[5],> 260 µM (inactive)
C/C(=N\OC(=O)c1ccc(F)cc1)c1ccc(F)c(F)c1,EC50,[5],> 260 µM (inactive)
Oc1ccc(Br)cc1/C=N/n1cnc2ccccc21,EC50,[1],15.8 µM (active)
same,EC50,H4,17.9 µM (active)
same,EC50,[2],11 µM (active)
Cc1ccc(/C=N/N(Cc2ccccc2)c2ccccc2)o1,EC50,[5],> 260 µM (inactive)
C/C(=N/NC(=O)c1ccoc1C)c1ccc(NC(=O)c2ccncc2)cc1,EC50,[1],0.148 µM (inconclusive)
same,EC50,H4,0.102 µM (active)
same,EC50,[2],23.9 µM (active)
CC[C@@]1(O)C[C@H](OC2CC(N(C)C)C(OC3CC(O)C(OC4CCC(=O)C(C)O4)C(C)O3)C(C)O2)c2c(cc3c(c2O)C(=O)c2c(O)cccc2C3=O)[C@H]1C(=O)OC (stereo partly specified),GI50,P388/ADR,0.0333 µM (active)
same,GI50,SN12K1,0.0236 µM (active)
COc1c2occc2c(OC)c2c(=O)cc(C)oc12 [KHELLIN],AC50,Cytochrome P450 2D6,10 µM (inconclusive)
